In patent US20230135894A1, “MK2 DEGRADERS AND USES THEREOF” (Kymera Therapeutics, Inc., priority 2021, published 2023):

Experiments:
MK2 [1] = target: T1, MK2 (Homo sapiens, UniProt P49137); assay: MK2 degradation in human THP-1 monocytic cells (MSD, 24 h); type: cell-based; design: endogenous in cells; key to MK2 MSD THP-1 degradation 24 h GMean External Abs DC50: A (<0.001 μM); B (0.001-0.01 μM); C (0.01-0.1 μM); D (>0.1 μM); —: “-”=not tested or inactive; conditions: for Dmax: THP-1, THP-1 cells; for DC50: read-out: MK2 MSD THP-1 degradation 24 h GMean External Abs DC50
T1 sequence (P49137 whole entry): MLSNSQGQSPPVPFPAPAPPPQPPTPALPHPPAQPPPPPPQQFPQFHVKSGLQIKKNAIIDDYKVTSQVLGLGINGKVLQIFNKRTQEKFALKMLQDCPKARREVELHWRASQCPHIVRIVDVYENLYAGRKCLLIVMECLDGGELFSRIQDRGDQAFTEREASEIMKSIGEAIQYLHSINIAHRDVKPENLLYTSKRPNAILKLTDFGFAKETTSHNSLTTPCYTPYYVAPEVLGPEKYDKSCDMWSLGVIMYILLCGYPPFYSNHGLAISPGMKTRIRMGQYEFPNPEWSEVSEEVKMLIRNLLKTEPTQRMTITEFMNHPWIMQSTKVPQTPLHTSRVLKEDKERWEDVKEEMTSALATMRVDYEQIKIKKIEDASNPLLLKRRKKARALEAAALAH
Experimental: MK2 Degradation in Human THP-1 Monoctyic Cells
(§1) The human monocytic cancer cell line THP-1 (ATCC (TIB-202)) was cultured in 96 well plates (Corning 3894) at a density of 200,000 cells per well in 100 microlitres in complete growth medium of RPMI 1640 (Gibco) pus 10% fetal Bovine Serum (Corning) and Penicillin/Streptomycin (SolarBio) at 37 degrees Celsius and 5% CO2. A serial dilution of each compound (usually 3 to 5 fold serial dilutions up to 10 separate concentration points) was added to individual wells from a 10 millimolar stock solution, at a background concentration of 0.1% DMSO and the cells were shaken at 600 rpm for 5 minutes and then were cultured for 24 hours at 37 degrees Celsius and 5% carbon dioxide. Separately, a custom MSD (MesoScaleDiscovery, L15XA-3) plate for detection of human MK2 was prepared by coating the plate with the commercial AbCam ab247272 reagent in 1×Phosphate Buffered Saline at 40 microlitres per well and incubated at 4 degrees Celsius overnight. The next day, the MSD plate was washed with 150 microlitres of Tween buffered saline, blocked with MSD blocking buffer (3% Blocker A from MSD), and washed again.
(§2) The cell plate was centrifuged at 3,200 g for 5 minutes and the supernatant was discarded and 100 microlitres of RIPA lysis buffer (containing proteinase inhibitors, Boston BioProducts BP-115D) was added and the plate was sealed and shaken on ice for 20 minutes. The plate was centrifuged as before and 70 microlitres of sample lysate was added to the MSD plates and they were shaken at room temperature for 1 hour at 600 rpm. The MSD plate was washed 3 times as before and then the primary MK2 detection antibody (Santa Cruz sc-100393) was added at a final concentration of 1 microgram per ml at 25 microlitres per well and shaken at room temperature for 1 hour at 600 rpm.
(§3) After 3 more washes, the secondary detection antibody (SULFO-Tag anti rabbit antibody R32AB-5) was added at a final concentration of 1 microgram per ml at 25 microlitres per well and shaken at room temperature for 1 hour at 600 rpm. After 3 more washes, the 1×MSD (diluted from 5× concentrate with water) reading buffer was added at 150 microlitres per well and read on the MSD instrument Meso Sector S 600.
(§4) The inhibition/degradation curves and DC50 values were plotted and calculated using XL Fit (version v5.3.1.3) using equation 201 and a 4 parameter logistic model whereby fit=(A+((B−A)/(1+((x/C)D))) where A is the Bottom and B is the Top and C is the IC50 and D is the slope and high C is the signal for the DMSO treated cells and Low C is the signal is the signal for the lysis buffer.

MK2 [2] = target: T1, MK2; assay: MK2 degradation in human SW1353 cells (MSD, 24 h); type: cell-based; design: endogenous in cells; host or cells: SW-1353 (ATCC HTB-94); key to MK2 MSD SW1353 degradation 24 h GMean External Abs DC50: A (<0.001 μM); B (0.001-0.01 μM); C (0.01-0.1 μM); D (>0.1 μM); —: “-”=not tested or inactive; key to MK2 MSD SW 1353 24 h Dmax %: —: “-”=not tested or inactive; conditions: for Dmax: read-out: MK2 MSD SW 1353 24 h Dmax %; for DC50: read-out: MK2 MSD SW1353 degradation 24 h GMean External Abs DC50
Experimental: MK2 Degradation in Human SW1353 Cells
as §1, with “chondrocyte” for “monocytic”, “SW-1353 (ATCC(HTB-94))” for “THP-1 (ATCC (TIB-202))”, “Leibovitz's L-15 Medium” for “RPMI 1640”, “Celsius.” for “Celsius and 5% CO2.”, “Celsius.” for “Celsius and 5% carbon dioxide.”
as §2, §3, §4

SMILES	Dmax (MK2 [1]) [%]	DC50 (MK2 [1]; THP-1 cells) [nM]	Dmax (MK2 [2]) [%]	DC50 (MK2 [2]) [nM]	MK2 MSD THP-1 degradation 24 h GMean External Abs DC50 (MK2 [1]; THP-1 cells)	MK2 MSD SW1353 degradation 24 h GMean External Abs DC50 (MK2 [2])	MK2 MSD SW 1353 24 h Dmax % (MK2 [2])
Cn1c(=O)n(C2CCC(=O)NC2=O)c2cccc(N3CCC(CN4CCN(c5ccc(-c6cc(-c7cc8c([nH]7)CCNC8=O)ccn6)cn5)CC4)CC3)c21 (stereo not drawn) [Compound I-138]	> 75	< 1	> 75	< 1			
C[C@@H]1CNc2c(sc3ccc4nc(-c5cncc(N6CCN(CCCc7ccc8c(c7)n(C)c(=O)n8C7CCC(=O)NC7=O)CC6)c5)ccc4c23)C(=O)N1 (stereo partly drawn) [Compound I-157]	> 75	< 1	> 75	< 1			
C[C@@H]1CNc2c(sc3ccc4nc(N5CCN(CC6CCN(c7ccc(-c8ccc9c(c8)n(C)c(=O)n9C8CCC(=O)NC8=O)cc7)CC6)CC5)ccc4c23)C(=O)N1 (stereo partly drawn) [Compound I-184]	> 75		> 75		—	—	
C[C@@H]1CNc2c(sc3ccc4nc(-c5ccc(N6CCN(CCCc7cccc8c7n(C)c(=O)n8C7CCC(=O)NC7=O)CC6)cc5)ccc4c23)C(=O)N1 (stereo partly drawn) [Compound I-172]	> 75	< 1	> 75	< 1			
C[C@@H]1CNc2c(sc3ccc4nc(-c5ccc(N6CCN(CC7CN(c8ccc9c(c8)n(C)c(=O)n9C8CCC(=O)NC8=O)C7)CC6)nc5)ccc4c23)C(=O)N1 (stereo partly drawn) [Compound I-254]	> 75	< 1	> 75	< 1			
C[C@@H]1CN(C)c2c(sc3ccc4nc(-c5ccc(N6CCN(CC7CCN(c8cccc9c8n(C)c(=O)n9C8CCC(=O)NC8=O)CC7)CC6)cc5)ccc4c23)C(=O)N1 (stereo partly drawn) [Compound I-274]	> 75	10 to 100	> 75	10 to 100			
CN1CC2(CNC(=O)c3c2[nH]c2c3CCc3cnc(-c4ccc(CN5CCC(OCC#Cc6ccc7c(c6)n(C)c(=O)n7C6CCC(=O)NC6=O)CC5)cc4F)cc3-2)C1 (stereo not drawn) [Compound I-1]	< 50	> 100	< 50	> 100			
Cn1c(=O)n(C2CCC(=O)NC2=O)c2ccc(CCN3CCN(c4ccc(-c5cc(-c6cc7c([nH]6)C6(CC6)CNC7=O)ccn5)cn4)CC3)cc21 (stereo not drawn) [Compound I-201]	< 50	> 100				—	—
C[C@@H]1CNc2c(sc3ccc4nc(N5C6CCC5CN(CC5CCN(c7ccc8c(c7)n(C)c(=O)n8C7CCC(=O)NC7=O)CC5)C6)ccc4c23)C(=O)N1 (stereo partly drawn) [Compound I-434]	< 50	> 100	< 50	> 100			
C[C@@H]1CNc2c(sc3ccc4nc(-c5ccc(N6CCC(CN7CCC(c8cccc9c8n(C)c(=O)n9C8CCC(=O)NC8=O)CC7)CC6)nc5)ccc4c23)C(=O)N1 (stereo partly drawn) [Compound I-99]	> 75	< 1	> 75	< 1			
Cn1c(=O)n(C2CCC(=O)NC2=O)c2ccc(N3CCC(CN4CCN(c5ccc(-c6cc(-c7cc8c([nH]7)C7(CCCC7)CNC8=O)ccn6)cc5)CC4)CC3)cc21 (stereo not drawn) [Compound I-192]	> 75	< 1	> 75	< 1			

Second part, the compound after the results:

Dmax (MK2 [1]) [%]	DC50 (MK2 [1]; THP-1 cells) [nM]	Dmax (MK2 [2]) [%]	DC50 (MK2 [2]) [nM]	MK2 MSD THP-1 degradation 24 h GMean External Abs DC50 (MK2 [1]; THP-1 cells)	MK2 MSD SW1353 degradation 24 h GMean External Abs DC50 (MK2 [2])	MK2 MSD SW 1353 24 h Dmax % (MK2 [2])	SMILES
< 50	> 100	< 50	> 100				O=C1CCC(N2Cc3cc(N4CCN(CC5CCN(c6ccc(F)c(-c7cc(-c8cc9c([nH]8)CCNC9=O)ccn7)c6)CC5)CC4)ccc3C2=O)C(=O)N1 (stereo not drawn) [Compound I-301]
< 50	> 100	< 50	> 100				COc1cccc(-c2cc(N3CCN(CC4CCN(c5ccc6c(c5)n(C)c(=O)n6C5CCC(=O)NC5=O)CC4)CC3)cc(-n3cc(-c4ccc5c(c4)CCNC5=O)c(N)n3)c2)c1 (stereo not drawn) [Compound I-460]
> 75	1 to 10	> 75	< 1				C[C@@H]1CN(C)c2c(sc3ccc4nc(-c5ccc(N6CCN(CCc7cccc8c7n(C)c(=O)n8C7CCC(=O)NC7=O)CC6)nc5)ccc4c23)C(=O)N1 (stereo partly drawn) [Compound I-414]
> 75	1 to 10	> 75	1 to 10				C[C@@H]1CNc2c(sc3ccc4nc(-c5cccc(N6CCC(CN7CCN(c8ccc9c(c8)CN(C8CCC(=O)NC8=O)C9=O)CC7)CC6)c5)ccc4c23)C(=O)N1 (stereo partly drawn) [Compound I-304]
> 75	1 to 10	> 75	< 1				Cn1c(=O)n(C2CCC(=O)NC2=O)c2cccc(N3CC(N4CCN(c5ccc(-c6cc(-c7cc8c([nH]7)C7(CCCC7)CNC8=O)ccn6)cc5)CC4)C3)c21 (stereo not drawn) [Compound I-418]
> 75	1 to 10	> 75	1 to 10				C[C@@H]1CNc2c(sc3ccc4nc(-c5ccc(N6CCC(CN7CCC(c8cccc9c(N%10CCC(=O)NC%10=O)cncc89)CC7)CC6)cc5)ccc4c23)C(=O)N1 [Compound I-311]
> 75	< 1	> 75	< 1				C[C@@H]1CNc2c(sc3ccc4nc(N5CCN(C6CC7(CCN(c8cccc9c8n(C)c(=O)n9C8CCC(=O)NC8=O)CC7)C6)CC5)ccc4c23)C(=O)N1 (stereo partly drawn) [Compound I-443]
< 50	> 100	< 50	> 100				C[C@@H]1CNc2c(sc3ccc4nc(N5CC6(CCN(CC7CCN(c8ccc9c(c8)n(C)c(=O)n9C8CCC(=O)NC8=O)CC7)CC6)C5)ccc4c23)C(=O)N1 (stereo partly drawn) [Compound I-390]
> 75	< 1	> 75	< 1				C[C@@H]1CN(C)c2c(sc3ccc4nc(-c5ccc(N6CCN(CC7CN(c8ccc9c(c8)n(C)c(=O)n9C8CCC(=O)NC8=O)C7)CC6)nc5)ccc4c23)C(=O)N1 (stereo partly drawn) [Compound I-412]
> 75	< 1	> 75	1 to 10				C[C@@H]1CN(C)c2c(sc3ccc4nc(-c5ccc(N6CCN(CCc7cccc8c7n(C)c(=O)n8C7CCC(=O)NC7=O)CC6)cc5)ccc4c23)C(=O)N1 (stereo partly drawn) [Compound I-413]
> 75	< 1	> 75	1 to 10				C[C@@H]1CNc2c(sc3ccc4nc(-c5ccc(N6CCN(CC7CCN(c8ccc9c(c8)n(C)c(=O)n9C8CCC(=O)NC8=O)CC7)CC6)cc5F)ccc4c23)C(=O)N1 (stereo partly drawn) [Compound I-289]
> 75	1 to 10	> 75	< 1				Cn1c(=O)n(C2CCC(=O)NC2=O)c2ccc(N3CCC(CN4CCN(c5ccc(-c6cc(-c7cc8c([nH]7)C7(CCCC7)CNC8=O)ccn6)c(F)c5)CC4)CC3)cc21 (stereo not drawn) [Compound I-424]
> 75	< 1	> 75	< 1				Cn1c(=O)n(C2CCC(=O)NC2=O)c2ccc(N3CC(CN4CCN(c5ccc(-c6cc(-c7cc8c([nH]7)C7(CCCC7)CNC8=O)ccn6)c(F)c5)CC4)C3)cc21 (stereo not drawn) [Compound I-422]
